One assay concerns BT/Lap^R1.0. As to the kind of experiment: Antitumor bioactivity evaluation, breast cancer cells (ATPlite). Conditions: Homo sapiens; test sample 5 μM, 72 hours; read-out: Inhibitory Rate % BT/Lap^R1.0. Type of assay: cell-based, human. The method, boiled down:
(§1)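 After plating 5000 cells per well and letting them attach for 24 h, compounds are added at a single 5 μM final concentration, either alone or together with lapatinib at 1 μM. Cultures incubate 72 h at 37 °C before ATP content is measured by luminescence.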
(In ATP-based viability assays light output follows the ATP content of the culture.)

Another assay deals with T1, Hsp70 (Homo sapiens, UniProt P0DMV8).
T1 construct: purchased Enzo Life Sciences ADI-ESP-550-D
Briefly: Measurement of affinity between compounds and Hsp70 (SPR, BIACORE T100). It is filed as binding. Conditions: for Kd: steady state model, 25° C., read-out: KD (binding constant between the compounds and Hsp70). The method, then:
Instrument for measuring the affinity between Example compounds and Hsp70 is BIACORE T100 Biomolecular Interaction Analysis (GE, USA), and the positive control drug is VER-155008 that is well-recognized as Hsp70 inhibitor now, and, on the basis of the measured results, according to binding characteristics between the compounds and protein, the binding constant (equilibrium dissociation constant KD) between drugs and protein is calculated by selecting steady state model with the formula: Conc*Rmax/[conc+KD]+offset.
1. Instrument: BIACORE T100 Biomolecular Interaction Analysis (GE, USA)
2. Reagents: PBS Buffer (×10), P20, CM5 chip (GE, USA), Hsp70 (human, ADI-ESP-550-D), manufactured by Enzo Life Sciences.
30 mM mother liquor of the compound was formulated with DMSO, which was diluted to 2 mM application solution with DMSO before use. 5 μl of the application solution was taken and diluted with 95 μl 1.05×PBS to 100 μM, and then diluted in turn with PBS containing 5% DMSO to […]. PBS containing 5% DMSO was used as solvent control.
Hsp70 protein was diluted with 10 mmol/L sodium acetate buffer solution (pH 5.0) to 30 μg/ml, and coupled directly on a hydrophilic carboxylmethyl dextran matrix sensor chip M5 through normalized primary amine coupling reaction, RU=11209, and then the chip was balanced for 1-2 h with PBS Buffer at […].
At a flow rate of […], with PBS containing 5% DMSO as mobile phase, at 25° C., the compound was introduced in the sequence of 0.003, 0.01, 0.03, 0.1, 0.3, 1, 3 and 10 μM, with binding time of 90 seconds, and dissociation time of 120 seconds.
According to binding characteristics between the compounds and protein, the binding constant (equilibrium dissociation constant KD) between drugs and protein was calculated by selecting steady state model with the formula: Conc*Rmax/[conc+KD]+offset.

A further assay concerns MDA-MB-361. As to the kind of experiment: Antitumor bioactivity evaluation, breast cancer cells (ATPlite). Type of assay: cell-based. The following applies: Homo sapiens, test sample 5 μM, 72 hours, read-out: Inhibitory Rate % MDA-MB-361. The method, boiled down:
as §1

Another assay concerns MDA-MB-453. The description is as above. Conditions: Homo sapiens, test sample 5 μM, 72 hours, read-out: Inhibitory Rate % MDA-MB-453. It is filed as cell-based. The method, boiled down: as §1
A further assay deals with SK/Lap^R1.0. The assay is described as above. It is filed as cell-based. Conditions: Homo sapiens; test sample 5 μM, 72 hours; read-out: Inhibitory Rate % SKLap^R1.0. An outline of the steps:
as §1

Another assay deals with SK-BR3. The description is as above. Type of assay: cell-based. Conditions: Homo sapiens, SK-BR-3; test sample 5 μM, 72 hours; read-out: Inhibitory Rate % SK-BR3. The method, boiled down:
as §1

The subject of another assay is BT474. The assay is described as above. Type of assay: cell-based. Conditions: Homo sapiens, BT-474; test sample 5 μM, 72 hours; read-out: Inhibitory Rate % BT474. An outline of the steps:
as §1

Data on ten compounds can be found in patent US10023565B2, “N,N′ substituted piperidinamine compounds, and preparation method and usage thereof” (Institute of Pharmacology and Toxicology Academy of …, priority 2013, dated 2018).

T1 sequence (P0DMV8 whole entry): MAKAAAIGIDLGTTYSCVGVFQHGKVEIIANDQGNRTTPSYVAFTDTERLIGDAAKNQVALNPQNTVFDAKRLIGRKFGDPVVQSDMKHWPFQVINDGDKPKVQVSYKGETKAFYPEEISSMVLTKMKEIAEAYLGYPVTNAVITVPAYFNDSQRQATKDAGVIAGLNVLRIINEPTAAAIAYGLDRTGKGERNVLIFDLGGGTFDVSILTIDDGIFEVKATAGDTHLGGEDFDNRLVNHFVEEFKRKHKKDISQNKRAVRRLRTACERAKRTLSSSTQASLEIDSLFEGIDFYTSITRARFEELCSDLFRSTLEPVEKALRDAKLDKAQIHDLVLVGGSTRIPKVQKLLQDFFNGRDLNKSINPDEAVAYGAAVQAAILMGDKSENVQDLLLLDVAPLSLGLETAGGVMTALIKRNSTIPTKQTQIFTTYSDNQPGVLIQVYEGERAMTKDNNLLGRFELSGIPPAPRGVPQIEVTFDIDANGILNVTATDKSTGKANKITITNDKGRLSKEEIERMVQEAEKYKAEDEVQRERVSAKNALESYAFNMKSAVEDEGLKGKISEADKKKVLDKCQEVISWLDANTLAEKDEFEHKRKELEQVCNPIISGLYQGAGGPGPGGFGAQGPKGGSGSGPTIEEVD

As to `Fc1ccc(CNC2CCN(Cc3cnc(Cl)s3)CC2)cc1` [Example 12, N-(4-fluorobenzyl)-N-{1-[(2-chlorothiazol-5-yl)methyl]piperidin-4-yl}amine], the inhibition at 5 µM came out at 9.1% with BT/Lap^R1.0; 4.8% in the assay on MDA-MB-361; 0.1% with MDA-MB-453; 4.4% with SK/Lap^R1.0; 22.4% with SK-BR3; 5.4% in the assay on BT474. At Hsp70, the “KD compared with positive control drug VER-155008” value was “KD values equivalent to that of the positive control drug VER-155008”. Also, the dissociation constant Kd at Hsp70 came to 200 nM.
On to `CSc1nccc(N2CCC(N(C)Cc3ccc(F)cc3)CC2)n1` [Example 35, N-methyl-N-(4-fluorobenzyl)-N-[1-(2-methylthiopyrimidin-4-yl)piperidin-4-yl]amine], for which the inhibition at 5 µM with BT/Lap^R1.0 worked out at 44.7%; in the assay on MDA-MB-361 it was 46%; in the assay with MDA-MB-453, 82.3%; in the assay with SK/Lap^R1.0, 30.9%; with SK-BR3, 31.5%; in the assay with BT474, 40.5%. For the same compound, the “KD compared with positive control drug VER-155008” value at Hsp70 is listed as “KD values equivalent to that of the positive control drug VER-155008”. Besides, at Hsp70, the Kd worked out at 204 nM.
For `COc1nccc(N2CCC(N(C)Cc3ccc(F)cc3)CC2)n1` [Example 57, N-methyl-N-(4-fluorobenzyl)-N-[1-(2-methoxypyrimidin-4-yl)piperidin-4-yl]amine], the inhibition at 5 µM with BT/Lap^R1.0 came to 14.6%; in the assay with MDA-MB-361, 12.8%; with MDA-MB-453, 40.4%; with SK/Lap^R1.0 it was 9%; with SK-BR3, 14.4%; in the assay with BT474, 12.5%. The “KD compared with positive control drug VER-155008” value on Hsp70 is on record as “KD values equivalent to that of the positive control drug VER-155008”. In addition, at Hsp70, the Kd turned out to be 281 nM.
Regarding `CN(Cc1ccccc1C#N)C1CCN(Cc2cnc(Cl)s2)CC1` [Example 14, N-methyl-N-(2-cyanobenzyl)-N-{1-[(2-chlorothiazol-5-yl)methyl]piperidin-4-yl}amine], the inhibition at 5 µM with BT/Lap^R1.0 is 4%; in the assay on MDA-MB-361 it was -8.5%; in the assay on MDA-MB-453, 8.2%; in the assay with SK/Lap^R1.0, 4.2%; in the assay on SK-BR3 it was 7.3%; with BT474, -4.1%. Also, on Hsp70, the “KD compared with positive control drug VER-155008” value is on record as “KD values equivalent to that of the positive control drug VER-155008”. Further, on Hsp70, the Kd stood at 245 nM.
Regarding `COc1cc(N2CCC(N(C)Cc3cccc(F)c3)CC2)ncn1` [Example 68, N-methyl-N-(3-fluorobenzyl)-N-[1-(6-methoxypyrimidin-4-yl)piperidin-4-yl]amine], the inhibition at 5 µM in the assay on BT/Lap^R1.0 turned out to be 5.6%; in the assay with MDA-MB-361 it was 8.4%; in the assay on MDA-MB-453, 9.4%; with SK/Lap^R1.0, 30.1%; in the assay with SK-BR3, 5.2%; in the assay with BT474, 5.4%.
Consider `CN(Cc1cccc(Cl)c1)C1CCN(Cc2cnc(Cl)s2)CC1` [Example 18, N-methyl-N-(3-chlorobenzyl)-N-{1-[(2-chlorothiazol-5-yl)methyl]piperidin-4-yl}amine], for which the inhibition at 5 µM with BT/Lap^R1.0 amounted to 8.4%; with MDA-MB-361, 9.7%; in the assay on MDA-MB-453 it was 12.6%; in the assay with SK/Lap^R1.0, 8.5%; with SK-BR3, 15.5%; in the assay on BT474, 7.1%.
On to `CS(=O)(=O)CCNCc1ccc(-c2ccc3ncnc(Nc4ccc(OCc5cccc(F)c5)c(Cl)c4)c3c2)o1` [lapatinib, reference compound], for which the inhibition at 5 µM was found to be 18% in the assay with BT/Lap^R1.0; 40.2% in the assay with MDA-MB-361; 42.6% in the assay with MDA-MB-453; 10.4% with SK/Lap^R1.0; 79% in the assay on SK-BR3; 75.6% in the assay with BT474.
As for `COc1cc(N2CCC(N(C)Cc3ccc(Cl)c(Cl)c3)CC2)ncn1` [Example 61, N-methyl-N-(3,4-dichlorobenzyl)-N-[1-(6-methoxypyrimidin-4-yl)piperidin-4-yl]amine], the inhibition at 5 µM in the assay on BT/Lap^R1.0 was 9.2%; in the assay with MDA-MB-361, 6.5%; in the assay with MDA-MB-453, 12.7%; in the assay with SK/Lap^R1.0, 28%; in the assay with SK-BR3, 16.1%; in the assay with BT474, 9.8%.
Take `COc1nccc(N2CCC(N(C)Cc3ccc(Cl)c(Cl)c3)CC2)n1` [Example 53, N-methyl-N-(3,4-dichlorobenzyl)-N-[1-(2-methoxypyrimidin-4-yl)piperidin-4-yl]amine]: the inhibition at 5 µM in the assay with BT/Lap^R1.0 worked out at 35.8%; in the assay on MDA-MB-361, 41.7%; in the assay on MDA-MB-453, 60.2%; with SK/Lap^R1.0 it was 16.8%; with SK-BR3 it was 27.7%; in the assay on BT474, 52.9%.
In the case of `CSc1ncc(CN2CCC(N(C)Cc3ccc(Cl)cc3Cl)CC2)s1` [Example 33, N-methyl-N-(2,4-dichlorobenzyl)-N-{1-[(2-methylthiothiazol-5-yl)methyl]piperidin-4-yl}amine], the inhibition at 5 µM amounted to 66.3% in the assay on BT/Lap^R1.0; 36.3% in the assay on MDA-MB-361; 72.4% in the assay on MDA-MB-453; 40.4% with SK/Lap^R1.0; 37.8% with SK-BR3; 70% with BT474.

A word on the Kd: it is the concentration at which binding is half-saturated.
